According to patent US20260048036A1, “CRYSTALLINE FORMS OF A GLUCOSYLCERAMIDE SYNTHASE INHIBITOR AND USES THEREOF” (ACELINK THERAPEUTICS, INC., priority 2022, published 2026):
Where a chain is given by its changes, count along the chain named. Values after ≈ are worked out from the molar mass of the structure shown. Values joined by “and” are separate entries in the source; they are usually repeats but may differ in a detail not shown here. Equal entries are not always repeated.

Assays:
[1] = Competitive equilibration experiment (Form A + D + E slurry); type: physicochemical; settings: ethanol, acetone, acetonitrile at 5° C., 25° C. and 50° C., 3 days, XRPD
Protocol: Competitive slurry was conducted to determine thermodynamic relationships of Crystalline Form A, Crystalline Form D and Crystalline Form E of Compound 1. […] The mixtures were stirred at 5° C., 25° C. or 50° C. for 3 days. Obtained solid part (wet cake) was investigated by XRPD.

[2] = Solid state stability, 1 week (HPLC purity, color, XRPD); settings: for Bulk (XRPD) / Purity, Bulk (HPLC): Solid state, 1 week; for Purity, Bulk (HPLC): initial purity 99.8%
[3] = Water activity study (Form A + Form C slurry); type: physicochemical; settings: ethanol/water mixtures, a.w. 0.2-1.0, 25° C. or 50° C., XRPD of wet cake
Protocol: Water activity experiments were conducted at 25° C. or 50° C. to determine critical water activity between anhydrate and hydrate. […] The mixtures were stirred at 25° C. or 50° C. for at least 2 days. The obtained solid part (wet cake) was investigated by XRPD.
The results of water activity study in different solvents at 25° C. and 50° C. are shown in Table 10 and Table 11, respectively. The water activity of a binary solvent system was calculated based on UNIFAC method (UNIQUAC Functional-group Activity Coefficients).

[4] = target: T1, Glucosylceramide synthase (GCS) (Homo sapiens, UniProt Q16739); assay: GCS cell-based assay with live K-562 cells; settings: C6-NBD-glucosylceramide by LC-MS/MS
T1 construct: The MDCK, K-562, and L6 cell lines all endogenously express GCS enzyme; host or cells: K-562 human leukemia cells, live
T1 sequence (Q16739 1-394): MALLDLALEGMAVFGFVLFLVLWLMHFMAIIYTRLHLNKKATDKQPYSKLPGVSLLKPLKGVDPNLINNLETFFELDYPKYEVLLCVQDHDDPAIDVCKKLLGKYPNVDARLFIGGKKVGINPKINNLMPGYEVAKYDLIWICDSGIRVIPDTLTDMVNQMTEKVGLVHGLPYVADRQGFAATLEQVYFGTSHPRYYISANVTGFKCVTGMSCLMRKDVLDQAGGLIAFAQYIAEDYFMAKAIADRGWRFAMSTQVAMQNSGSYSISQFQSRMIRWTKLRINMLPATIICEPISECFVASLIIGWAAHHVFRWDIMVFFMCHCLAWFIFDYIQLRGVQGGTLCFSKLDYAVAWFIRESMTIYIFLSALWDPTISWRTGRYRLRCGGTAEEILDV
Text: (§1) The reaction product, C6-NBD-glucosylceramide, could then be detected and quantified by LC-MS/MS. The inventors used this method to test and validate the effect of various GCS inhibitors on GCS enzyme activity from different species.
(§2) The GCS enzyme activity was detected by using the fluorescent substrate, C6-NBD-ceramide, and monitoring the formation of the fluorescent reaction product, C6-NBD-glucosylceramide. First, the inventors used cell lysate derived from a canine kidney cell line (MDCK, ATCC Cat #CCL-34™) as the source of GCS and tested the inhibitory activity of several control and test compounds.
(§3) The quantitative analysis of C6-NBD-glucosylceramide was performed on a Shimadzu ultra-fast liquid chromatography coupled with API 4000 mass spectrometer. Analyst 1.5 software packages were used to control the LC-MS/MS system, as well as for data acquisition and processing.
The C6-NBD-glucosylceramide reading was normalized first by dividing the peak area of C6-NBD-glucosylceramide with the peak area of the internal standard, and then the amount was calculated according to the standard curve generated in the same assay run. For the cell based assay results, the amount of C6-NBD-glucosylceramide was also normalized by the protein concentration of the cell samples. […]

[5] = Approximate solubility at 25° C. by visual observation; type: physicochemical; settings: thermodynamic from solid
Protocol: Free form Crystalline Form A of Compound 1 was used as the starting material for salt screening and selection study. […] Max. volume of each solvent added was 1 mL.

[6] = target: T2, Glucosylceramide synthase (GCS) (Canis lupus familiaris, UniProt A0A8I3MXG6); assay: GCS enzymatic assay with MDCK cell lysate; type: biochemical, canine
T2 construct: The MDCK, K-562, and L6 cell lines all endogenously express GCS enzyme; host or cells: MDCK (canine kidney) cell lysate
T2 sequence (A0A8I3MXG6 1-394): T1 sequence (Q16739 1-394) with L20V, Y196S
Text: as §1, §2
GCS activity was evaluated using a GCS enzyme assay derived from MDCK or L6 cell lysates.
MDCK or L6 cell lysates were prepared using M-PER in the presence of a protease inhibitor cocktail. Each 100 mm dish (100% confluent) was lysed with 250 μl of M-PER containing protease inhibitors. Protein concentration was determined using Pierce BCA protein assay kit.
The final concentration of DMSO was 0.1% in both compound treated and DMSO only treated samples. Each individual reaction was terminated with 11 volumes of methanol:acetonitrile (6:5; containing 200 ng/ml Tolbutamide as internal control). After sufficient mixing, reactions were centrifuged at 2000 rpm for 10 mins, supernatant was injected into the LC-MS/MS for analysis.
as §3
The C6-NBD-glucosylceramide reading was normalized first by dividing the peak area of C6-NBD-glucosylceramide with the peak area of the internal standard, and then the amount was calculated according to the standard curve generated in the same assay run. For the cell based assay results, the amount of C6-NBD-glucosylceramide was also normalized by the protein concentration of the cell samples.
IC50 values were generated from sigmoidal dose-response (variable slope) curves with GraphPad Prism software (GraphPad Software, Inc., San Diego, CA) using the percent inhibition of C6-NBD-glucosylceramide accumulation relative to DMSO control.

[7] = 0.1 μM, 60 μg MDCK lysate/reaction, N = 1, N = 2

Compound: O=C(N[C@H](CN1CCCC1)[C@H](O)c1ccc(OC2CC2)c(Cl)c1)/C(=N/O)c1ccc2cc(Cl)ccc2c1 [Crystalline Form A of Compound 1]
- thermodynamic stability in competitive slurry [1]: the most stable form
- chemical and physical stability ([2]; 25° C./92% RH open container, 40° C./75% RH open container, 60° C. tight container, one week): chemically and physically stable
- Bulk (XRPD) ([2]; 25° C./92% RH, open container): No form change
- Purity, Bulk (HPLC) ([2]; 25° C./92% RH, open container): 99.8%
- Bulk (XRPD) ([2]; 40° C./75% RH, open container): No form change
- Purity, Bulk (HPLC) ([2]; 40° C./75% RH, open container): 99.8%
- Bulk (XRPD) ([2]; 60° C., tight container): No form change
- Purity, Bulk (HPLC) ([2]; 60° C., tight container): 99.8%
- form stability in water activity study [3]: stable in a wide range of water activity
- IC50 [4]: 6.15 nM
- solubility ([5]; organic solvent or mixture, Acetone): 16700 to 25000 µg/mL (≈ 30.8 to 46.1 mM)
- solubility ([5]; organic solvent or mixture, Acetonitrile): < 5000 µg/mL
- solubility ([5]; organic solvent or mixture, Ethanol): 5000 to 5500 µg/mL (≈ 9.22 to 10.1 mM)
- solubility ([5]; organic solvent or mixture, Ethyl acetate): < 5000 µg/mL
- solubility ([5]; Water): < 5000 µg/mL
- C6-NBD-Ceramide (Normalized to internal control) [6, 7]: 5.04 and 4.88
- C6-NBD-Glucosylceramide Concentration [6, 7]: 33.1 nM and 32.5 nM
- Inhibition [6, 7]: 96.72%
- inhibition at 0.1 µM [6, 7]: 96.7%
- IC50 ([6]; MDCK cell lysate as source of GCS, C6-NBD-glucosylceramide by LC-MS/MS): 7.66 nM
